Results taken from the supplement of paper PMC10307832.

Experiments:
Test in all cases: relative viability (nuclei count vs DMSO), 5 days (fraction); higher = more cells survive
[1] = compound: O=C(CCCCCCNC(=O)c1cnc(N(c2ccccc2)c2ccccc2)nc1)NO [Ricolinostat] + CC(=O)c1c(C)c2cnc(Nc3ccc(N4CCNCC4)cn3)nc2n(C2CCCC2)c1=O [Palbociclib] (partner 0.5 µM)
Method in brief: (§1)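 Each reported value is a median over duplicate plates. It expresses relative viability: treated-well nuclei count divided by vehicle-well nuclei count. Lung cancer cell lines in 1536-well plates were dosed by pin tool a day after seeding, alone with one drug or with a fixed anchor-drug dose plus five library-drug doses (not always all listed) in √10 steps, and nuclei were counted after 5 days.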

TGX 221 + Decitabine = compound: CC1=CN2C(=O)C=C(N=C2C(=C1)C(C)NC3=CC=CC=C3)N4CCOCC4 [TGX 221] + Nc1ncn([C@H]2C[C@H](O)[C@@H](CO)O2)c(=O)n1 [Decitabine] (partner 2 µM)
Method in brief: as §1

[2] = compound: O=C(CCCCCCNC(=O)c1cnc(N(c2ccccc2)c2ccccc2)nc1)NO [Ricolinostat] + O=C(CCCCCCC(=O)Nc1ccccc1)NO [Vorinostat] (partner 1 µM)
Method in brief: as §1

TGX 221 + Alpelisib = compound: CC1=CN2C(=O)C=C(N=C2C(=C1)C(C)NC3=CC=CC=C3)N4CCOCC4 [TGX 221] + Cc1nc(NC(=O)N2CCC[C@H]2C(N)=O)sc1-c1ccnc(C(C)(C)C(F)(F)F)c1 [Alpelisib] (partner 2 µM)
Method in brief: as §1

Cell Line | relative viability ([1]; first compound 0.08 µM) | relative viability ([1]; first compound 0.253 µM) | relative viability ([1]; first compound 0.8 µM) | relative viability ([1]; first compound 2.53 µM) | relative viability (TGX 221 + Decitabine; first compound 0.08 µM) | relative viability (TGX 221 + Decitabine; first compound 0.253 µM) | relative viability (TGX 221 + Decitabine; first compound 0.8 µM) | relative viability (TGX 221 + Decitabine; first compound 2.53 µM) | relative viability (TGX 221 + Decitabine; first compound 8 µM) | relative viability ([2]; first compound 0.08 µM) | relative viability ([2]; first compound 0.253 µM) | relative viability ([2]; first compound 0.8 µM) | relative viability ([2]; first compound 2.53 µM) | relative viability (TGX 221 + Alpelisib; first compound 0.08 µM) | relative viability (TGX 221 + Alpelisib; first compound 0.253 µM) | relative viability (TGX 221 + Alpelisib; first compound 0.8 µM) | relative viability (TGX 221 + Alpelisib; first compound 2.53 µM) | relative viability (TGX 221 + Alpelisib; first compound 8 µM)
NCI-H2126 | 0.347 | 0.347 | 0.353 | 0.363 | 0.568 | 0.567 | 0.633 | 0.55 | 0.554 | 0.456 | 0.796 | 0.684 | 0.485 | 0.708 | 0.652 | 0.611 | 0.58 | 0.617
NCI-H2023 | 0.415 | 0.328 | 0.42 | 0.397 | 0.224 | 0.236 | 0.243 | 0.217 | 0.23 | 0.511 | 0.544 | 0.47 | 0.369 | 0.599 | 0.452 | 0.524 | 0.311 | 0.268
SK-LU-1 | 0.4 | 0.377 | 0.377 | 0.366 | 0.612 | 0.626 | 0.522 | 0.588 | 0.626 | 0.669 | 0.613 | 0.731 | 0.607 | 0.948 | 0.788 | 0.903 | 0.9 | 0.731
NCI-H2347 | 0.487 | 0.371 | 0.294 | 0.408 | 0.564 | 0.504 | 0.582 | 0.558 | 0.597 | 0.449 | 0.567 | 0.55 | 0.469 | 0.994 | 0.911 | 0.955 | 0.605 | 0.756
HCC-15 | 0.779 | 0.739 | 0.685 | 0.606 | 0.699 | 0.648 | 0.636 | 0.591 | 0.709 | 0.768 | 0.746 | 0.691 | 0.618 | 0.893 | 0.788 | 0.958 | 0.831 | 0.776
HCC-44 | 0.91 | 0.935 | 1.01 | 0.964 | 0.921 | 0.957 | 1.03 | 1.04 | 1.02 | 1.16 | 0.99 | 1.06 | 1.06 | 0.784 | 0.667 | 0.632 | 0.597 | 0.473
NCI-H1355 | 0.373 | 0.367 | 0.31 | 0.402 | 0.35 | 0.349 | 0.355 | 0.325 | 0.309 | 0.64 | 0.627 | 0.619 | 0.533 | 0.711 | 0.67 | 0.673 | 0.584 | 0.54
NCI-H2405 | 0.517 | 0.554 | 0.542 | 0.571 | 0.72 | 0.729 | 0.75 | 0.68 | 0.615 | 0.854 | 1.02 | 0.379 | 0.767 | 0.586 | 0.615 | 0.582 | 0.531 | 0.463
EKVX | 0.358 | 0.42 | 0.408 | 0.422 | 0.346 | 0.313 | 0.345 | 0.367 | 0.307 | 0.617 | 0.724 | 0.62 | 0.74 | 0.77 | 0.716 | 0.648 | 0.5 | 0.477
NCI-H1993 | 0.614 | 0.67 | 0.664 | 0.514 | 0.593 | 0.693 | 0.663 | 0.598 | 0.547 | 0.551 | 0.825 | 0.693 | – | 0.64 | 0.57 | 0.723 | 0.616 | 0.651
HOP-62 | 0.457 | 0.406 | 0.355 | 0.416 | 0.213 | 0.185 | 0.207 | 0.246 | 0.268 | 0.572 | 0.537 | 0.478 | 0.292 | 0.899 | 0.958 | 0.827 | 1.13 | 1.11
SK-MES-1 | 0.369 | 0.308 | 0.339 | 0.397 | 0.397 | 0.365 | 0.373 | 0.395 | 0.36 | 0.912 | 1.03 | 1.07 | 0.932 | 0.843 | 0.628 | 0.785 | 0.549 | 0.476
ABC-1 | 0.585 | 0.631 | 0.8 | 0.612 | 1.06 | 1.26 | 1 | 1.07 | 0.923 | 1.02 | 1.06 | 0.749 | 0.762 | 1.03 | 0.858 | 0.996 | 0.99 | 0.838
NCI-H1755 | 0.463 | 0.458 | 0.493 | 0.453 | 0.723 | 0.657 | 0.655 | 0.631 | 0.632 | 0.665 | 0.715 | 0.673 | 0.484 | 0.876 | 0.706 | 0.651 | 0.49 | 0.437
NCI-H838 | 0.202 | 0.262 | 0.182 | 0.235 | 0.443 | 0.448 | 0.462 | 0.447 | 0.452 | 0.725 | 0.689 | 0.582 | 0.315 | 0.902 | 0.88 | 0.849 | 0.723 | 0.631
NCI-H322M | 0.495 | 0.493 | 0.478 | 0.52 | 0.628 | 0.683 | 0.693 | 0.62 | 0.678 | 0.621 | 0.834 | 0.827 | 0.804 | 0.8 | 0.64 | 0.64 | 0.687 | 0.505
NCI-H441 | 0.213 | 0.233 | 0.2 | 0.234 | 0.226 | 0.239 | 0.24 | 0.285 | 0.287 | 0.735 | 0.76 | 0.643 | 0.54 | 0.889 | 0.723 | 0.717 | 0.768 | 0.848
EMC-BAC-2 | 0.525 | 0.496 | 0.47 | 0.405 | 0.961 | 0.886 | 0.947 | 1.05 | 0.85 | 0.398 | 0.417 | 0.25 | 0.293 | 0.735 | 0.597 | 0.679 | 0.623 | 0.629
